Laboratory results from a melting point compilation (Tetko et al.; mined from patent text by program, amines drawn as free bases though some values may be those of a salt).

First: O=C(Nc1ccc(C(F)(F)F)cc1)N1CC(c2ccccc2)C(c2ccc(Cl)cc2)N1 (stereo not given)
Second: O=S(=O)(c1ccc(Cl)cc1)N1CCCC1c1ccccc1 (racemic)
The melting point of the first is higher: 212 to 214 °C for the first, 119 °C for the second.

First: CNC(=O)n1ncc2ccc(NC(=O)/C=C/c3ccc(C(C)(C)C)cc3)cc21
Second: CC(C)(CO)NS(=O)(=O)c1cccc(NC(=O)c2cnn3c(C(F)(F)F)cc(-c4ccc(Cl)cc4)nc23)c1
The melting point of the first is lower: 208 to 209 °C for the first, 271 °C for the second.

First: CC(=O)OC[C@H]1OC(O)[C@H](OC(C)=O)[C@@H](F)[C@@H]1OC(C)=O (stereo not given in full)
Second: CC(=O)OC1CSC(Oc2cnccc2-c2cccnc2)C(OC(C)=O)C1OC(C)=O (stereo not given)
The melting point of the first is lower: 115 to 120 °C for the first, 159 °C for the second.

First: COC(=NS(=O)(=O)c1ccccc1Cl)Nc1nc(C)nc(OC)n1
Second: COC(C)=CC(=O)Nc1ccccc1C
The melting point of the first is higher: 156 to 157 °C for the first, 101 °C for the second.

Compared with `Fc1ccc2c(-c3cccc(OC[C@@H]4CO4)c3)noc2c1`, `Fc1ccc(-c2nc(S)nc(-c3ccccn3)n2)cc1` is higher in melting point: 83 to 84 °C for the first, > 270 °C for the second.

Compared with `Cc1ccc(N=C2NCCN2)cc1NS(C)(=O)=O`, `COC(=O)c1ccc(Cl)cc1NS(C)(=O)=O` is higher in melting point: 124 to 126 °C for the first, 126 to 128 °C for the second.

First: CCc1cccc(CC)c1NC(=O)NC1(c2ccccc2)CCC1
Second: CC(=O)NC(Cc1ccccc1)C(=O)Nc1c(C)cccc1C (stereo not given)
The melting point of the first is higher: 227 to 230 °C for the first, 217 to 218 °C for the second.

First: COc1cc(C=O)cc(OC)c1O[Si](C)(C)C(C)(C)C
Second: COc1ccc(C=Cc2cc(OC)c(OC)c(OC)c2)cc1OC
The melting point of the first is lower: 68 °C for the first, 150 to 152 °C for the second.

First: O=C(O)c1ccn(C2=CC3=C(CC2)CCc2[nH]c(=O)c(=O)n(O)c23)c1
Second: COc1c(N2CCCC2)c(F)cc2c(=O)c(C(=O)O)cn(C3CC3)c12
The melting point of the first is higher: > 300 °C for the first, 257 to 258 °C for the second.

Compared with `O=S(=O)(O)c1ccc(Nc2ccnc3cc(Cl)ccc23)cc1Cl`, `CS(=O)(=O)Nc1ccccc1NC1=CC=NC(Nc2ccc3c(c2)CNCCS3)N1Cl` (stereo not given) is lower in melting point: 280 to 285 °C for the first, 141 to 143 °C for the second.

Compared with `NC(=O)c1cnc(Oc2ccc(C3OCCO3)cc2F)cn1`, `CC(Oc1ccc(Oc2ncc(Cl)cc2Cl)cc1)C(=O)N1CCCO1` (stereo not given) is lower in melting point: 169 to 172 °C for the first, 106 to 108 °C for the second.

First: CC(C)n1nc(-c2cc(NC(=O)c3ccccc3)cnc2-c2ccccc2)ccc1=O
Second: CC(C)N1CC(CCl)C(c2ccccc2)(c2ccccc2)C1=O (stereo not given)
The melting point of the first is higher: 207 to 208 °C for the first, 114 to 116 °C for the second.

Compared with `CS(=O)(=O)c1ccc(C(=O)c2cc(-c3cccnc3)c(N3CCOCC3)s2)cc1`, `COc1c(C)cc(-c2cc(-c3cccnc3)c(N3CCOCC3)s2)nc1C` is lower in melting point: 147 °C for the first, 139 to 140 °C for the second.

Compared with `CN1Cc2cccc(Cl)c2S1(=O)=O`, `CCCN(CCC)CC1CCCCN1CCNC(=O)N1c2ccccc2C(=O)Nc2cccc(Cl)c21` (stereo not given) is lower in melting point: 95 to 97 °C for the first, 71 to 78 °C for the second.

First: CC(C)c1oc(C=Cc2ccccc2)nc1CO
Second: O=c1cc(CO)oc2ccccc12
The melting point of the first is lower: 91 to 92 °C for the first, 165 to 167 °C for the second.

Compared with `COC(=O)CCCCCC(O)c1ccc(-n2ccnc2)cc1` (stereo not given), `CCCC(c1ccc(C#N)cc1)n1ccnc1` (stereo not given) is lower in melting point: 77 to 78 °C for the first, 63 to 71 °C for the second.

Compared with `O=[N+]([O-])c1sccc1-c1ccc(Cl)cc1`, `Nc1ccc(-c2ccc(N)c([N+](=O)[O-])c2)cc1[N+](=O)[O-]` is higher in melting point: 108 to 110 °C for the first, 275 °C for the second.

Compared with `COc1ccc(C(C(Br)c2ccc(F)cc2)C(F)(F)F)cc1` (stereo not given), `O=c1oc(-c2ccc([N+](=O)[O-])cc2)nn1-c1ccc(C(F)(F)F)cc1` is higher in melting point: 73 to 94 °C for the first, 160 to 163 °C for the second.

First: CC#CCOc1ccc(S(=O)(=O)C(C(=O)NO)C2CCN(Cc3ccc(OC)cc3)CC2)cc1 (stereo not given)
Second: CCCCNC(=O)Oc1ccc(Oc2ccc(Cl)cc2)cc1
The melting point of the first is higher: 138 °C for the first, 106 to 108 °C for the second.

Compared with `O=S1(=O)N(CCCN2CC=C(c3ccccc3)CC2)c2cccc3cccc(c23)N1CCCN1CC=C(c2ccccc2)CC1`, `OC(COc1ccc2nncn2n1)CN1CCN(C(c2ccccc2)c2ccccc2)CC1` (stereo not given) is lower in melting point: 140 °C for the first, 95 to 97 °C for the second.

Compared with `Cc1nc2cccc(OCC(C)(C)NC(=O)CC3CCOCC3)c2c(N)c1C(=O)O`, `Cc1nc(N2CCN(Cc3ccc(C(F)(F)F)o3)C2=O)sc1C(=O)NCc1ccccc1` is lower in melting point: 175 to 178 °C for the first, 143 to 145 °C for the second.

First: COc1cc2c(cc1C(C)(C)c1ccccc1)OCO2
Second: CC(C)Nc1cc2c(cc1C(=O)c1ccccc1)OCO2
The melting point of the first is lower: 75 to 76 °C for the first, 77 to 78 °C for the second.

First: OCC1CC(n2c(Cl)nc3cc(Cl)c(Cl)cc32)C(O)C1O (stereo not given)
Second: O=C(O)C1CC=CCC1C(=O)N1CCc2cc(S(=O)(=O)N3CCN(c4cccc(Cl)c4)CC3)ccc21 (stereo not given)
The melting point of the first is higher: 206 to 210 °C for the first, 146 to 148 °C for the second.

First: COc1cc(-c2cnc3[nH]cc(C(=O)C4(C)CCC(O)CC4)c3n2)cc(OC)c1OC (stereo not given)
Second: COc1cc(-c2nc3ccccc3n2Cc2ccccc2F)cc(OC)c1OC
The melting point of the first is higher: 242 to 244 °C for the first, 154 °C for the second.

First: CCn1c(=O)c(-c2cc(OC)cc(OC)c2)cc2cnc(SC)nc21
Second: COc1ccc(-c2[nH]c(=O)c3cc(OC)ccc3c2N2CCOCC2)cc1
The melting point of the first is lower: 120 to 122 °C for the first, 139 °C for the second.

First: O=C(/C=C/C=C/c1ccccc1)NCCCOc1ccc(CC(=O)NO)cc1
Second: COC(=O)C[C@H](Cc1ccc(-c2ccccc2)cc1)NCP(=O)(OC)OC
The melting point of the first is higher: 198 to 201 °C for the first, 67 °C for the second.

First: CCCCOC(=O)N1CCN(C(=O)c2cc(S(=O)(=O)N(C)C)ccc2N)CC1
Second: CCCCCOc1cc2c(cc1C(=O)Oc1ccc(C(=O)O)cn1)C(C)(C)CCC2(C)C
The melting point of the first is higher: 175 to 177 °C for the first, 132 to 133 °C for the second.

Compared with `FC(F)(F)C(F)(F)C1(CNC2=NCCO2)CCCCC1`, `CCOC(=O)C1(Nc2ccc(C(O)(C(F)(F)F)C(F)(F)F)cc2)CCC(C(C)(C)C)CC1` (stereo not given) is lower in melting point: 115 to 118 °C for the first, 107 °C for the second.

Compared with `COc1cc(Br)cc2c1OCCC2`, `Nc1c(Cl)cc(C(=O)NC2CCNCC2)c2c1CCO2` is higher in melting point: 67 °C for the first, 190 °C for the second.

First: O=[N+]([O-])c1ccc(Sc2ncccn2)cc1
Second: CCOC(=O)c1ncc2[nH]c3cccc(Oc4ccc([N+](=O)[O-])cc4)c3c2c1COC
The melting point of the first is lower: 103 to 104 °C for the first, 231 to 232 °C for the second.

First: CC1=C(C(=O)CS(=O)(=O)NC(C)C)C(c2cccc([N+](=O)[O-])c2)C(C(=O)OC(C)C)=C(C)N1C (stereo not given)
Second: CCCS(=O)(=O)NC(=O)C[C@H]1O[C@H](c2cccc(OC)c2OC)c2cc(Cl)ccc2N(CC(C)(C)CO)C1=O
The melting point of the first is lower: 67 to 69 °C for the first, 135 to 137 °C for the second.

First: CCOC(=O)C(Cc1ccc2ccc3cccc4ccc1c2c34)(NC(C)=O)C(=O)OCC
Second: CCOc1ccccc1CNC(=O)c1ccc2cnccc2n1
The melting point of the first is higher: 135 to 140 °C for the first, 79 to 80 °C for the second.

First: c1ncn2nncc2n1
Second: c1ccc(-c2ccc3nncn3n2)cc1
The melting point of the first is higher: 249 to 251 °C for the first, 138 to 139 °C for the second.

Compared with `Cc1c(C(=O)N[C@H](C)[C@](O)(Cn2cncn2)c2ccc(F)cc2F)cnn1-c1ccc(Cl)cc1`, `COc1cn(-c2ccc(N(N)C(=O)OC(C)(C)C)cc2F)nc(-c2ccnn2-c2ccccc2)c1=O` is higher in melting point: 154 to 155 °C for the first, 163 to 165 °C for the second.

First: O=C1CCSC(=S)N1c1ccccn1
Second: O=C1NCCN1Cc1ccc2c(Br)cccc2c1
The melting point of the first is lower: 157 °C for the first, 158 to 161 °C for the second.

Compared with `COC(=O)NC(=O)Nc1nc2c(C)cccc2s1`, `CCOC(=O)c1cc2cc(NC(C)=O)ccc2nn1` is lower in melting point: 272 to 280 °C for the first, 256 to 258 °C for the second.

Compared with `Nc1ccc2ccc(Oc3ccccc3)nc2n1`, `OCCCc1ccc2ccccc2c1O` is lower in melting point: 196 °C for the first, 85 to 86 °C for the second.

Compared with `CCOCCn1c(NC2CCN(CC(=O)O)CC2)nc2cccnc21`, `CCOc1cc2cc(C(=O)O)sc2cc1OCC` is higher in melting point: 227 °C for the first, 243 to 245 °C for the second.

First: O=C1NC(=O)c2c1c(-c1ccccc1Cl)cc1c2c2cc(O)ccc2n1CCC(O)CO (stereo not given)
Second: O=c1[nH]c2cc(Cl)cc(Cl)c2c(O)c1Sc1ccccc1Br
The melting point of the first is lower: 263 to 267 °C for the first, 285 to 288 °C for the second.

First: Cc1cccc2c1N(Cc1c[nH]cn1)C(=O)C(NC(=O)Nc1cccc(-c3nnn[nH]3)c1)N=C2C1CCCCC1 (stereo not given)
Second: CC(=O)Nc1ccc(NC(=O)c2ccc(-c3[nH]nc4c3C(=O)c3c(NC(=O)NN5CCOCC5)cccc3-4)s2)cc1
The melting point of the first is lower: 168 to 179 °C for the first, 253 to 254 °C for the second.

Compared with `O=C(O)C1CC2CC(CP(=O)(O)O)CCC2CN1` (stereo not given), `CC(=O)C1CCC2C3CCC4CC(O)C(F)CC4(C)C3C(=O)CC12C` (stereo not given) is lower in melting point: 208 to 211 °C for the first, 174 to 178 °C for the second.

Compared with `CN1C(=O)C(=Cc2nc(C(C)(C)C)c(O)c(C(C)(C)C)n2)SC1=S`, `CCOCc1nc2c(N)nc3cc(OCCCCCCNC(C)=O)ccc3c2n1CC(C)(C)NS(C)(=O)=O` is lower in melting point: 226 to 228 °C for the first, 169 to 171 °C for the second.

Going from `COC(=S)C1CCn2c(C(=O)c3ccccc3)ccc21` (stereo not given) to `CC1(CNc2ccccc2)SC2C(NC(=O)Cc3ccccc3)C(=O)N2C1C(=O)O` (stereo not given), the melting point rises from 69 °C to 120 °C.

Compared with `Cc1cn2cccc(N[C@@H]3c4ccccc4C[C@H]3O)c2n1` (relative stereo), `N#Cc1cnc(N[C@@H]2CCCc3ccccc32)nc1N` is lower in melting point: 188 to 190 °C for the first, 168 °C for the second.

Compared with `CCS(=O)(=O)c1sc(S(N)(=O)=O)cc1C(C)NC(C)=O` (stereo not given), `CCCCCC(C)Oc1cc(O)c2c(c1)OC(C)(C)C1CCC(=O)C=C21` (stereo not given) is lower in melting point: 213 to 220 °C for the first, 185 to 189 °C for the second.

First: Nc1ccc(C#Cc2nc(F)c(F)c(F)c2F)c(C#Cc2nc(F)c(F)c(F)c2F)c1
Second: O=C(Cl)c1cc(C(=O)Cl)c(C#Cc2ccccc2)cc1C#Cc1ccccc1
The melting point of the first is higher: 164 to 165 °C for the first, 157 to 160 °C for the second.

First: Cn1nc(N)c(C#N)c1N
Second: N#Cc1cccc(-c2ccco2)n1
The melting point of the first is higher: 194 °C for the first, 90.2 to 90.3 °C for the second.

First: C=COCCONC(=O)c1cc(Cl)c(F)c(F)c1Nc1ccc(I)cc1F
Second: COC(=O)C(Cc1ccc(OCc2ccccc2)cc1)NC(=O)c1cc2ccc(-c3ccc(Cl)cc3)cc2s1 (stereo not given)
The melting point of the first is lower: 119 to 120 °C for the first, 200 to 201 °C for the second.

First: COc1cccc([C@H]2O[C@H](CC(=O)O)C(=O)N(CC(C)(CO)CO)c3ccc(Cl)cc32)c1OC
Second: COc1ccc(CN(C)CCC2CN(C)C(=S)c3cccnc3O2)cc1 (stereo not given)
The melting point of the first is higher: 208 to 210 °C for the first, 128 to 130 °C for the second.

First: O=C(O)c1cn(-c2cccnc2)nc1Br
Second: COc1ccc(N)c(S)c1
The melting point of the first is higher: 270 to 278 °C for the first, 104 °C for the second.
